Laboratory results published in publication PMC6930638, “The Masked Polar Group Incorporation (MPGI) Strategy in Drug Design: Effects of Nitrogen Substitutions on Combretastatin and Isocombretastatin Tubulin Inhibitors” (Molecules, 2019).
pIC50: −log10 of the molar value. In brackets after ≈: the same amount, converted by molar mass. Where two headings read alike, the source gives them in different places.

Experiments:
[1] = test system: rat primary pancreatic cells; experiment: Toxicity against rat primary pancreatic cells (MTT); conditions: 0.05 µM, 7 h
Description: The toxicity of the compounds against rat primary pancreatic cells was evaluated by the MTT protocol (Table 2). […] Sodium taurocholate (NaTc) was also used at high concentrations as a model of acute pancreatitis in vitro.
Rat primary pancreatic cells were isolated as previously described. Afterwards, pancreatic cells were resuspended in Na-HEPES solution (pH 7.4) containing 14 mM glucose, 1% essential amino acid mixture, 1% (w/v) BSA, 0.01% (w/v) STI, 0.5 mM CaCl2 and incubated (5% CO2, at 37 °C) for 7 h in the absence (non-treated control) or the presence of compounds at different concentrations. After the treatment, cells were incubated (5% CO2, at 37 °C) with 0.5 mg/mL MTT for 2 h and the formazan crystals were solubilized with DMSO (v/v). The optical density was read at 570 nm with a reference wavelength of 630 nm. Non-treated cell viability was set as 100%.

[2] = Aqueous solubility determination (shake flask, UV); format: physicochemical; conditions: for solubility at 48 h: thermodynamic from solid
Description: One of the expected effects of introducing nitrogen substitutions on combretastatin and isocombretastatin analogues, is an increase in aqueous solubility. Solubility was spectrophotometrically determined in phosphate buffer at pH 7. UV absorbance of soluble compounds was measured after shaking and microfiltration. […] In addition, aqueous solubilities of the corresponding ammonium salts are over 1 mg/mL.
This great improvement is probably due to the symmetry reduction, combined with an increased polarity for 2g.
Compounds were stirred in a solution of phosphate buffer at pH 7.0 (1–2 mg of compound in 300 µL of buffer) during 48 h. After that, the samples were filtered over a […] filter to discard the insoluble residues. In order to determine the maximum wavelength of absorbance for each compound, a scan between 270 and 400 nm was performed. Once the wavelength was selected, a calibration line was performed and the concentration of the stirred and filtered samples was measured.

[3] = test system: HeLa cervix epithelioid carcinoma; experiment: MTT cell antiproliferative assay, HeLa; format: cell-based; conditions: Homo sapiens, 72 h
Description: (§1) The in vitro antiproliferative activity of the synthesized compounds was evaluated by a colorimetric reaction, using the MTT reagent. They were tested against three different human tumor cell lines: HeLa cervix epithelioid carcinoma, HT-29 colon adenocarcinoma, and MCF-7 breast adenocarcinoma. […] Moving the alkylamino substituent from a para to a meta position with respect to the bridge results in potency reduction, except for the phenstatin analogue 1f. However, the introduction of a nitrogen atom to form 2-dimethylaminopyridine derivatives entails a loss of activity, both for phenstatin analogues (1b, 2b), while for isocombretastatins, it only involves a 2–3 times potency decrease (3b). For combretastatins, it implies an improvement in the cytotoxicity values down to tenths of nanomolar (8b). […] On the other hand, the best 2-dimethylaminopyridine was combretastatin 8b. All ammonium salts derivatives were not cytotoxic at micromolar concentrations.
(§2) HeLa (human cervical carcinoma) and MCF-7 (human breast carcinoma) cell lines were cultured in Dulbecco’s Modified Eagles Medium (DMEM) supplemented with 2 mM L-glutamine (Lonza-Cambrex, Karlskoga, Sweden), 10% (v/v) heat inactivated fetal bovine serum (HIFBS) (Lonza-Cambrex) and 100 μg/mL streptomycin-100 IU/mL penicillin (Lonza-Cambrex) at 37 °C in humidified 95% air and 5% CO2. HT-29 (human colon carcinoma) cells were cultured at 37 °C in complete RPMI 1640 medium containing 2 mM L-glutamine, 10% (v/v) HIFBS and 100 μg/mL streptomycin-100 IU/mL penicillin in humidified 95% air and 5% CO2 atmosphere.
(§3) The effect of the different compounds on the proliferation of human cell lines was determined by using the MTT (3-[4,5-dimethylthiazol-2-yl]-2,5-diphenyltetrazolium bromide) reagent (MTT Thiazolyl Blue Tetrazolium Bromide, Sigma-Aldrich, St. Louis, MO, USA) dissolved in PBS 5 mg/mL. Cell viability was evaluated seeding 100 µL of cells in exponential growth phase with appropriate cell line concentration (1.5 × 10^4 HeLa and MCF-7 cells/mL and 3 × 10^4 HT-29 cells/mL) in complete medium in 96-well plates at 37 °C and 5% CO2. After 24 h incubation to allow cells to attach to the plates the ligands were added at different concentrations from 10^−5 to 10^−9 M. The effect on the proliferation was evaluated 72 h post-treatment by adding the MTT reagent (10 µL/well) to a final concentration of 0.5 mg/mL and the plate was further incubated for another 3 h. After this period, the supernatant was removed, the MTT violet crystals formed on the bottom of each well were dissolved in DMSO (100 µL/well) and subsequently, the absorbance of the color complex was read at 570 nm using a multi-well plate reader. Compounds were dissolved in dimethyl sulfoxide (DMSO) and the final solvent concentrations never exceeded 0.5% (v/v). The control wells included treated cells with 0.5% (v/v) DMSO and the positive control. Measurements were performed in triplicate, and each experiment was repeated three times. […] Nonlinear curves fitting the experimental data were carried out for each compound.

[4] = test system: HT-29 colon adenocarcinoma; experiment: MTT cell antiproliferative assay, HT-29 (without or with verapamil); format: cell-based, human; conditions: for pIC50: Homo sapiens, HT-29, MTT, 72 h
Description: as §1
As observed in Table 1, there are no significant changes in the IC50 values for most compounds, except for combretastatins 8a and 8i.
Acquired resistance to antitumor drugs is one of the more important problems of chemotherapy, also affecting tubulin-targeting drugs. In order to ascertain the impact of multidrug resistance phenotypes on the action of the compounds, we have measured the cell proliferation inhibitory activity of HT-29 cells in the presence of verapamil, a known P-glycoprotein 1/multidrug resistance protein 1 (MDR1) inhibitor at a concentration of 10 µM, not affecting cell proliferation. […] Except for the combretastatin analogues 8a and 8i, the affected drugs are all pyridine drugs.
as §2, §3

[5] = test system: Bovine brain microtubule protein (MTP); experiment: Tubulin polymerization inhibition assay (turbidimetry); format: biochemical; conditions: 1.5 mg/mL MTP; IC50 calculated only if more than 50% inhibition at 20 µM; read-out: TPI IC50
Description: Bovine brain microtubule protein (MTP) was isolated as previously described. Briefly, it was purified according to the modified Shelanski method by two cycles of temperature-dependent assembly/disassembly.
Tubulin polymerization was monitored using a Helios α spectrophotometer by measuring the increase in turbidity at 450 nm, caused by a shift from 4 °C to 37 °C, which allows the in vitro MTP self-disassembly and assembly respectively. […] Firstly, ligands at 20 µM concentration, were incubated with 1.5 mg/mL MTP at 20 °C for 30 min and subsequently cooled on ice for 10 min. Then, the experiment starts at 4 °C to establish the initial baseline. The assembly process was initiated by shifting of the temperature to 37 °C and the turbidity produced can be measured by an absorbance increase. After reaching a stable plateau, the temperature was switched back to 4 °C to return to the initial absorption values. The difference in amplitude between the stable plateau and the initial baseline of the curves was taken as the degree of tubulin polymerization for each experiment. […] All the measurements were carried out in at least two independent experiments using MTP from different isolation.

[6] = test system: MCF-7 breast adenocarcinoma; experiment: MTT cell antiproliferative assay, MCF-7; format: cell-based; conditions: Homo sapiens, MCF7, 72 h
Description: as §1, §2, §3

[7] = test system: HeLa, HT-29 and MCF-7 human tumor cell lines; experiment: Antiproliferative activity over the three human tumor cell lines (MTT); format: cell-based; conditions: Homo sapiens, range over the cell lines, Table S1; read-out: Cytotoxicity range (range of antiproliferative IC50 values)
Description: as §1
The antiproliferative activity of the compounds against three human tumor cell lines of different origins (i.e., HeLa cervix epithelioid carcinoma, HT-29 colon adenocarcinoma and MCF-7 breast adenocarcinoma) was evaluated by the MTT method. […] This high success rate is the result of a combination of favorable scaffolds and substituents, and it is similar to those of previous reports on related series. […] We have previously observed the same trend for related compounds acting at the colchicine site of tubulin [10, 23]. For this pyridine series, we observed a different potency trend when we compare the 4-amino-3-pyridine and the 3-amino-4-pyridine derivatives. […] This different behavior is probably a reflection of their different shape, combined with the different geometries imposed by different bridges. We have previously shown that the potency ordering isocombretastatins similar to oximes higher than benzophenones could be explained by the higher conjugation of the ketones with the aromatic rings, which imposes a more planar disposition than those required for high affinity colchicine site binding. For the 3-amino-4-pyridine series, more planar structures are required in order to avoid the bumping of the amino substituents with tubulin out the plane of the aromatic ring, an effect which we have previously shown to impact the potency of 3-substituted indolecombretastatins and dimethylaminophenyl phenstatins. This different geometrical disposition of the amino substituents, and the different adaptability of their corresponding pockets in the two series, can also account for the preference of bulkier substituents at position 3, such as the pyrrolidine rather than the smaller dimethylamino. […] The opposite is observed for the 4-dimethylaminophenyl phenstatins 1a and 1b. […] The remarkable levels of solubility achieved for the quaternary ammonium salts came unfortunately at the expenses of biological activity.
The effect of the different compounds on the proliferation of human cell lines was determined by using the MTT (3-[4,5-dimethylthiazol-2-yl]-2,5-diphenyltetrazolium bromide) reagent (MTT Thiazolyl Blue Tetrazolium Bromide, Sigma-Aldrich, St. Louis, MO, USA) dissolved in PBS 5 mg/mL. Cell viability was evaluated seeding 100 µL of cells in exponential growth phase with appropriate cell line concentration (1.5 × 10^4 HeLa and MCF-7 cells/mL and 3 × 10^4 HT-29 cells/mL) in complete medium in 96-well plates at 37 °C and 5% CO2. After 24 h incubation to allow cells to attach to the plates the ligands were added at different concentrations from 10^−5 to 10^−9 M. The effect on the proliferation was evaluated 72 h post-treatment by adding the MTT reagent (10 µL/well) to a final concentration of 0.5 mg/mL and the plate was further incubated for another 3 h. […]

[8] = phosphate buffer, pH 7, aqueous buffer, phosphate buffer pH 7.0, 48 h stirring, filtered, UV, read-out: Solub.
[9] = aqueous buffer, phosphate buffer pH 7.0, 48 h stirring, filtered, UV, read-out: Solub.

For CC(=O)O[C@H]1C[C@H](O[C@H]2[C@@H](O)C[C@H](O[C@H]3[C@@H](O)C[C@H](O[C@H]4CC[C@@]5(C)[C@H](CC[C@@H]6[C@@H]5C[C@@H](O)[C@]5(C)[C@@H](C7=CC(=O)OC7)CC[C@]65O)C4)O[C@@H]3C)O[C@@H]2C)O[C@H](C)[C@H]1O [Acetyldigoxin, acetyl-digoxin, reference compound], the “live cells with respect to the non-treated control (means ± S.E.M.)” value [1] was 84.41 ± 9.64%.

Work on COc1cc(C(=O)c2ccc(N(C)C)cc2)cc(OC)c1OC [Compound 1a, (4-(Dimethylamino)phenyl)(3,4,5-trimethoxyphenyl)methanone] yielded a Solub. ([2]; phosphate buffer pH 7.0, 48 h stirring, filtered, UV) of 48 µg/mL, a pIC50 [3] of 7.05 and a pIC50 [4] of 6.40. It also gave a pIC50 [5] of under 4.70.

Compound COc1cc(C(=O)c2ccc(N3CCCC3)nc2)cc(OC)c1OC [Compound 1c, (6-(Pyrrolidin-1-yl)pyridin-3-yl)(3,4,5-trimethoxyphenyl)methanone] has a pIC50 [3] of 5.80, a pIC50 [4] of 5.29 and a pIC50 [6] of 5.63. The pIC50 [5] was under 4.70 and the pIC50 [7] was under 6.00.

For COc1ccc(C(=O)c2ccc(N(C)C)cc2)c(OC)c1OC [Compound 1d, (4-(Dimethylamino)phenyl)(2,3,4-trimethoxyphenyl)methanone], the pIC50 [3] was 6.38, the pIC50 [4] was 6.30 and the pIC50 [6] was 6.39. For the same compound, the pIC50 [5] was under 4.70 and the pIC50 [7] was 6.19 to 6.39.

In the case of COc1cc(C(=O)c2ccnc(N(C)C)c2)cc(OC)c1OC [Compound 1g, (2-(Dimethylamino)pyridin-4-yl)(3,4,5-trimethoxyphenyl)methanone], the solubility at 48 h [2, 8] was 33.8 µg/mL (≈ 107 µM), the pIC50 [3] was 6.41 and the pIC50 [4] was 6.50. It also gave a pIC50 [6] of 6.65, a pIC50 [5] of under 4.70 and a pIC50 [7] of 6.41 to 6.65.

Compound COc1cc(C(=NO)c2ccc(N(C)C)cc2)cc(OC)c1OC [Compound 2a, (4-(Dimethylamino)phenyl)(3,4,5-trimethoxyphenyl)methanone oxime] has a solubility at 48 h [2, 9] of 74 µg/mL (≈ 224 µM), a pIC50 [3] of 6.10 and a pIC50 [4] of 6.00. For the same compound, the pIC50 [5] was under 4.70.

For COc1cc(C(=NO)c2ccnc(N(C)C)c2)cc(OC)c1OC [Compound 2g, (2-(Dimethylamino)pyridin-4-yl)(3,4,5-trimethoxyphenyl)methanone oxime], the solubility at 48 h [2, 8] was 583 µg/mL (≈ 1760 µM), the solubility at 48 h ([2]; phosphate buffer, pH 7, aqueous buffer, phosphate buffer pH 7, stated in text, read-out: aqueous solubility) was about 600 µg/mL (≈ 1810 µM) and the pIC50 [3] was 6.27. The pIC50 [4] was 5.47, the pIC50 [6] was 6.39 and the pIC50 [5] was under 4.70.

For C=C(c1ccc(N(C)C)cc1)c1cc(OC)c(OC)c(OC)c1 [Compound 3a, N,N-Dimethyl-4-(1-(3,4,5-trimethoxyphenyl)vinyl)aniline], the solubility at 48 h [2, 9] was 30 µg/mL (≈ 95.7 µM), the pIC50 [3] was 7.40 and the pIC50 [4] was 7.15. It also gave a pIC50 [5] of 5.72.

Work on C=C(c1ccc(N(C)C)cc1)c1ccc(OC)c(OC)c1OC [Compound 3d, N,N-dimethyl-4-(1-(2,3,4-trimethoxyphenyl)vinyl)aniline] yielded a pIC50 [3] of 6.00, a pIC50 [4] of 5.40 and a pIC50 [6] of 5.70. For the same compound, the pIC50 [5] was under 4.70 and the pIC50 [7] was under 6.00.

For C=C(c1ccnc(N(C)C)c1)c1cc(OC)c(OC)c(OC)c1 [Compound 3g, N,N-Dimethyl-4-(1-(3,4,5-trimethoxyphenyl)vinyl)pyridin-2-amine], the solubility at 48 h [2, 8] was 136 µg/mL (≈ 433 µM), the pIC50 [3] was 6.39 and the pIC50 [4] was 6.40. For the same compound, the pIC50 [6] was 6.44 and the pIC50 [5] was under 4.70.

For C=C(c1ccnc(N2CCCC2)c1)c1cc(OC)c(OC)c(OC)c1 [Compound 3h, 2-(Pyrrolidin-1-yl)-4-(1-(3,4,5-trimethoxyphenyl)vinyl)pyridine], the solubility at 48 h [2, 8] was 62 µg/mL (≈ 182 µM), the pIC50 [3] was 6.59 and the “improvement of HT-29 IC50 after verapamil treatment” value ([4]; 10 µM verapamil) was over 2 fold. It also gave a pIC50 [4] of 6.32, a pIC50 [6] of 6.50 and a pIC50 [5] of under 4.70. It also gave a pIC50 [7] of 6.32 to 6.64.
